Reference: PubChem BioAssay AID248 (DTP/NCI, 2004)
Inconclusive results and toxic doses are left out. Cut-off read from the data, not from the text of the source: active = T/C of 150% or more; inactive = T/C below 125%.

Test system: L1210 leukemia ip in BDF1 mice, survival T/C
Assay: NCI In Vivo Anticancer Drug Screen. Data for tumor model L1210 Leukemia (intraperitoneal) in B6D2F1 (BDF1) mice
Conditions: endpoint: mean survival time, higher = longer survival
In short: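 Antitumor effect is assessed in tumor-bearing animals. Survival in the compound arm is compared with a vehicle-dosed control arm and expressed as their quotient.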

[1] = dose: 100.0 mg/kg/injection, schedule: Q04DX002 (ip), vehicle: saline with Tween-80
[2] = dose: 200.0 mg/kg/injection, schedule: Q04DX002 (ip), vehicle: saline with Tween-80
[3] = dose: 75.0 mg/kg/injection, schedule: Q01DX001 (ip), vehicle: saline
[4] = dose: 100.0 mg/kg/injection, schedule: Q01DX009 (ip), vehicle: saline
[5] = dose: 200.0 mg/kg/injection, schedule: Q01DX009 (ip), vehicle: saline
[6] = dose: 100.0 mg/kg/injection, schedule: Q04DX002 (ip), vehicle: Klucel (hydroxypropylcellulose) (HPC)
[7] = dose: 200.0 mg/kg/injection, schedule: Q04DX002 (ip), vehicle: Klucel (hydroxypropylcellulose) (HPC)
[8] = dose: 400.0 mg/kg/injection, schedule: Q04DX002 (ip), vehicle: Klucel (hydroxypropylcellulose) (HPC)

Measured: T/C

C/C(=N\N=C(/C)c1ccc(C)cc1C)c1ccc(C)cc1C
inactive: [1] 98 % of control | [2] 95 % of control | dose: 400.0 mg/kg/injection, schedule: Q04DX002 (ip), vehicle: saline with Tween-80 103 % of control

CC[N+](C)(C)C(C)(C)C
inactive: dose: 18.75 mg/kg/injection, schedule: Q01DX001 (ip), vehicle: saline 112 % of control | dose: 37.5 mg/kg/injection, schedule: Q01DX001 (ip), vehicle: saline 105 % of control | [3] 105 % of control

CCOC(=O)C1=C2C(C(=O)OCC)C(O)=C(C(=O)OCC)C2C(C(=O)OCC)C1=O (configuration not stated)
inactive: dose: 100.0 mg/kg/injection, schedule: Q01DX001 (ip), vehicle: saline 103 % of control | [4] 104 % of control | dose: 100.0 mg/kg/injection, schedule: Q04DX003 (ip), vehicle: saline 97 % of control | dose: 200.0 mg/kg/injection, schedule: Q01DX001 (ip), vehicle: saline 92 % of control | [5] 104 % of control | dose: 200.0 mg/kg/injection, schedule: Q04DX003 (ip), vehicle: saline 103 % of control | dose: 400.0 mg/kg/injection, schedule: Q01DX001 (ip), vehicle: saline 97 % of control | dose: 400.0 mg/kg/injection, schedule: Q01DX009 (ip), vehicle: saline 109 % of control | dose: 400.0 mg/kg/injection, schedule: Q04DX003 (ip), vehicle: saline 117 % of control

CC(=O)c1cccc(F)n1
inactive: [6] 93 % of control | [7] 110 % of control | [8] 100 % of control

CC12C=CC(O1)C1C(=O)OC(=O)C12 (configuration not stated)
inactive: dose: 50.0 mg/kg/injection, schedule: Q01DX009 (ip), vehicle: saline 91 % of control | dose: 75.0 mg/kg/injection, schedule: Q01DX001 (ip), vehicle: other 96 % of control | [4] 100 % of control | dose: 150.0 mg/kg/injection, schedule: Q01DX001 (ip), vehicle: other 98 % of control | [5] 88 % of control

N=C(N)c1ccc(OCCCCCOc2ccc(C(=N)N)cc2)cc1
inactive: dose: 12.5 mg/kg/injection, schedule: Q01DX Z (oral), vehicle: saline 95 % of control | dose: 25.0 mg/kg/injection, schedule: Q01DX Z (oral), vehicle: saline 95 % of control | dose: 50.0 mg/kg/injection, schedule: Q01DX Z (oral), vehicle: saline 100 % of control | dose: 100.0 mg/kg/injection, schedule: Q01DX Z (oral), vehicle: saline 100 % of control

O=C(O)CCNCC(=O)O
inactive: [3] 100 % of control | dose: 150.0 mg/kg/injection, schedule: Q01DX001 (ip), vehicle: saline 100 % of control | dose: 300.0 mg/kg/injection, schedule: Q01DX001 (ip), vehicle: saline 101 % of control

CCCCOC(=O)CCl
inactive: [1] 100 % of control | [2] 107 % of control

C1=NCCc2cc3[nH]c4ccccc4c3cc21
inactive: dose: 25.0 mg/kg/injection, schedule: Q01DX009 (ip), vehicle: Klucel (hydroxypropylcellulose) (HPC) 100 % of control | dose: 50.0 mg/kg/injection, schedule: Q01DX009 (ip), vehicle: Klucel (hydroxypropylcellulose) (HPC) 100 % of control | dose: 50.0 mg/kg/injection, schedule: Q04DX003 (ip), vehicle: Klucel (hydroxypropylcellulose) (HPC) 98 % of control | dose: 100.0 mg/kg/injection, schedule: Q01DX001 (ip), vehicle: Klucel (hydroxypropylcellulose) (HPC) 95 % of control | dose: 100.0 mg/kg/injection, schedule: Q01DX009 (ip), vehicle: Klucel (hydroxypropylcellulose) (HPC) 102 % of control | dose: 100.0 mg/kg/injection, schedule: Q04DX003 (ip), vehicle: Klucel (hydroxypropylcellulose) (HPC) 97 % of control | dose: 200.0 mg/kg/injection, schedule: Q01DX001 (ip), vehicle: Klucel (hydroxypropylcellulose) (HPC) 91 % of control

CCCN=Cc1cnc(C#N)c(N)n1
inactive: [6] 97 % of control | [7] 94 % of control | [8] 97 % of control
